Source: patent US11542259B2, “Compounds for the treatment of kinase-dependent disorders” (Exelixis, Inc., priority 2018, dated 2023)

Experiments:
KDR = KDR (Homo sapiens (Human), UniProt P35968); experiment: KDR autophosphorylation ELISA in HUVEC cells; type: cell-based; details: cellular, VEGF165 stimulated
Method in brief: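 Serum-starved (24 h) primary HUVEC were pretreated 1 h with compounds (8-point dilution, 0.3% DMSO final), then stimulated 5 min with 100 ng/mL VEGF165. Lysate phospho-KDR quantified by sandwich ELISA against a phospho-KDR standard; IC50 by 4-parameter fit, normalised to stimulated DMSO and unstimulated controls.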

Met = Met (Homo sapiens (Human), UniProt P08581); experiment: Met autophosphorylation ELISA in PC-3 cells; type: cell-based; details: cellular, HGF stimulated, read-out: c-Met IC50
Method in brief: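 Phospho-Met (panTyr) sandwich ELISA on lysates of PC-3 cells given 100 ng/mL HGF for 10 min after 1 h compound exposure (8-point curve, 0.3% DMSO) following 3 h serum starvation. Normalised to HGF-stimulated DMSO and reference-inhibitor wells; 4-parameter logistic IC50.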

[1] = target: Human Axl (residues H473-A894 with Q764R) (Homo sapiens (Human), UniProt P30530, Q764R); experiment: Human AXL kinase assay (33P radiometric, KinaseProfiler); type: biochemical; details: 10 μM ATP
[2] = target: Human Mer (residues R557-E882 with H628Q and R794A) (Homo sapiens (Human), UniProt Q12866); experiment: Human Mer kinase assay (33P radiometric, KinaseProfiler); type: biochemical; details: 10 μM ATP
Chain of Human Mer (residues R557-E882 with H628Q and R794A) (Q12866 557-882, stated change not applied): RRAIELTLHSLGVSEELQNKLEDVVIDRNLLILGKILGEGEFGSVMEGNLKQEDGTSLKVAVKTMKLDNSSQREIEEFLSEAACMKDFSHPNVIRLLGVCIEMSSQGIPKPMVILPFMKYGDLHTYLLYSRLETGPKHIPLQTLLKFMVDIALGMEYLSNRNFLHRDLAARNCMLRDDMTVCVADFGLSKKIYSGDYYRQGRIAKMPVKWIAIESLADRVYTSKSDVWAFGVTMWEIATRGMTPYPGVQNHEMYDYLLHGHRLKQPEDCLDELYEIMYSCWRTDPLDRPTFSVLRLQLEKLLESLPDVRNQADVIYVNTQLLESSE

Chain of Human Axl (residues H473-A894 with Q764R) (P30530 473-894 Q764R): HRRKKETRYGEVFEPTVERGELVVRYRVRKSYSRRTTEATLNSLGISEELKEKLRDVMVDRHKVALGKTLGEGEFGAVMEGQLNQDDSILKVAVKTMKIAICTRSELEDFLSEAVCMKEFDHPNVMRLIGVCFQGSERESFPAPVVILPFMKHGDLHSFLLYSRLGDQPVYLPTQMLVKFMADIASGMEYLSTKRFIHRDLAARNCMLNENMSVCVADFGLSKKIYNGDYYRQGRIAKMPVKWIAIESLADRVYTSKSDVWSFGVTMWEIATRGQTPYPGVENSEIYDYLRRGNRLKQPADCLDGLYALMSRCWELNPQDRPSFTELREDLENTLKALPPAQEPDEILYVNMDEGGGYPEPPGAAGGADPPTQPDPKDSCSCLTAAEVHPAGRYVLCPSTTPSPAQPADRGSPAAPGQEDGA
Chain of KDR (P35968 20-1356): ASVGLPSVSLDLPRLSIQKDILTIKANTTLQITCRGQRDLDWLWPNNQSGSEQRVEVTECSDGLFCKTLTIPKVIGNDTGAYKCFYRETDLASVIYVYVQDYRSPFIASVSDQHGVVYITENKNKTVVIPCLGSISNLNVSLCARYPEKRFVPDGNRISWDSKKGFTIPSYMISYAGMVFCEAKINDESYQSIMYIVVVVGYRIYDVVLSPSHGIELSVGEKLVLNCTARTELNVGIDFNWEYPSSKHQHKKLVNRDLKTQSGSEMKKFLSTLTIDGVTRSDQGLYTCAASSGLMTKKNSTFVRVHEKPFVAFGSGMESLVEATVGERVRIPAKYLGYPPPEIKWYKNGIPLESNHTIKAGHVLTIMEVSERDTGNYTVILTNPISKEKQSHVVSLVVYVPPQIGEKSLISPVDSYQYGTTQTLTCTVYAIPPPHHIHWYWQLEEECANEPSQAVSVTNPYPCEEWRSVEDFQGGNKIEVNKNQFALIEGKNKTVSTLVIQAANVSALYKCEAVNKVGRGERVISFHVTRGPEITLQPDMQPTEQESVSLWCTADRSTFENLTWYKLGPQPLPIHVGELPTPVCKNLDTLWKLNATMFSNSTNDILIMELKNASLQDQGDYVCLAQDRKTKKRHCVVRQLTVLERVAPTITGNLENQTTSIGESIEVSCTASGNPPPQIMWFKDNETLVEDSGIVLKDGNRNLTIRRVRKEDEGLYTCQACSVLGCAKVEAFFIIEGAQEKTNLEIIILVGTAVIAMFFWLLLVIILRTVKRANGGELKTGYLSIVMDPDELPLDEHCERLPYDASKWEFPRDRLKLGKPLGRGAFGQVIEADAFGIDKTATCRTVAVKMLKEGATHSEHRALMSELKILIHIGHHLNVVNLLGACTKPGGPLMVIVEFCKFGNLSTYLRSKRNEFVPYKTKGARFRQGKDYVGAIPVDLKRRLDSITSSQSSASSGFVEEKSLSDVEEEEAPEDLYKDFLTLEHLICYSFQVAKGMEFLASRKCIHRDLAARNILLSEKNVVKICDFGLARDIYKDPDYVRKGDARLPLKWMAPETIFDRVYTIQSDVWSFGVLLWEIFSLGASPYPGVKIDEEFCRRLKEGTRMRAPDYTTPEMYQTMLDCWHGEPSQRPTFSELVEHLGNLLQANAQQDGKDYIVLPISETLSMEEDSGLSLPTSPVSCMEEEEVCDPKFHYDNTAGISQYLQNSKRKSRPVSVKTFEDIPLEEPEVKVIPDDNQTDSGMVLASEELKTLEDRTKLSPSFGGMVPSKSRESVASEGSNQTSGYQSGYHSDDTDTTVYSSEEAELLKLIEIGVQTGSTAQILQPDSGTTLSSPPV
Chain of Met (P08581 25-1390): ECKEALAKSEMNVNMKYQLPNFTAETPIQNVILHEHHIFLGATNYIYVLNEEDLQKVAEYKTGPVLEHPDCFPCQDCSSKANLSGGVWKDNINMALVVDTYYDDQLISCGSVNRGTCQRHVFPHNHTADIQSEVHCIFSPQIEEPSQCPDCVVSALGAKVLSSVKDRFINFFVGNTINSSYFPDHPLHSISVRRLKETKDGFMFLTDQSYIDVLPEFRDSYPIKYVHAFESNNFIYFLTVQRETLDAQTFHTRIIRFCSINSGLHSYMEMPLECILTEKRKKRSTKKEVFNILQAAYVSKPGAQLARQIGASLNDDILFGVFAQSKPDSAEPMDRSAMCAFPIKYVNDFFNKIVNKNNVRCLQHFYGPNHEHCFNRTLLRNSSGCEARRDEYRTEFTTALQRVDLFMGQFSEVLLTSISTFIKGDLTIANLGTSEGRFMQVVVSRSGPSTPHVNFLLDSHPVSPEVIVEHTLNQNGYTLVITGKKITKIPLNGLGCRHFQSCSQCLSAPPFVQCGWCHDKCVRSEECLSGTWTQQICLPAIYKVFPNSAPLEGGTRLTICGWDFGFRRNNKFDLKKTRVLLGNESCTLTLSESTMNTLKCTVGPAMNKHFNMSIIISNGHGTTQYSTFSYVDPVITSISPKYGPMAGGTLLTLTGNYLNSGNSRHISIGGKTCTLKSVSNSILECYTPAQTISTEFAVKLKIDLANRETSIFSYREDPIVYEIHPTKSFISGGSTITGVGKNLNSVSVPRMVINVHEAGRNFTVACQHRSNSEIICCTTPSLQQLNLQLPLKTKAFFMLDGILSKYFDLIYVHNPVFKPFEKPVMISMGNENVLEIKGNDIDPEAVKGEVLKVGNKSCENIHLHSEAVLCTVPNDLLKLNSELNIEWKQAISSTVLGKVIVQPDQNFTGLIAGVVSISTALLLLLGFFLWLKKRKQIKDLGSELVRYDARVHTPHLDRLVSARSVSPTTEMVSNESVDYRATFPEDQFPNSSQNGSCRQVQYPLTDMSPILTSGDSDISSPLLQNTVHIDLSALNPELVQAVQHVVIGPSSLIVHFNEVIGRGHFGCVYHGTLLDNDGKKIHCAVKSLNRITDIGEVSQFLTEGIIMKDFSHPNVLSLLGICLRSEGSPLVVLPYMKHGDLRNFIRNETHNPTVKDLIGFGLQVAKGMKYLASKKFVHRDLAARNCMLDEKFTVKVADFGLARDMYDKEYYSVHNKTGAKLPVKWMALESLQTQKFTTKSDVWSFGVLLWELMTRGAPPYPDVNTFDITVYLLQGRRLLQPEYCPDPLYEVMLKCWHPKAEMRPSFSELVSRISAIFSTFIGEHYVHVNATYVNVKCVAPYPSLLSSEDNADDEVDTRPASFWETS

SMILES	IC50 (KDR)	IC50 (Met)	IC50 [1]	IC50 [2]
COC(=O)c1cc2nccc(Oc3ccc(NC(=O)C4(C(=O)Nc5ccc(F)cc5)CC4)cc3)c2cc1C [Compound 140, methyl 4-[4-[[1-[(4-fluorophenyl)carbamoyl]cyclopropanecarbonyl]amino]phenoxy]-6-methylquinoline-7-carboxylate]	10 to 100 nM	10 to 100 nM	10 to 100 nM	≤ 10 nM
COc1cc2nccc(Oc3ccc(NC(=O)C4(C(=O)Nc5ccc(F)cc5)CC4)cc3)c2cc1-c1ccccn1 [Compound 176, 1-N′-(4-fluorophenyl)-1-N-[4-(7-methoxy-6-pyridin-2-ylquinolin-4-yl)oxyphenyl]cyclopropane-1,1-dicarboxamide]	10 to 100 nM	10 to 100 nM	≤ 10 nM	≤ 10 nM
COc1cc2nccc(Oc3ccc(NC(=O)C4(C(=O)Nc5ccc(F)cc5)CC4)cc3)c2cc1-c1ccncc1 [Compound 202, 1-N′-(4-Fluorophenyl)-1-N-[4-(7-methoxy-6-pyridin-4-ylquinolin-4-yl)oxyphenyl]cyclopropane-1,1-dicarboxamide]	10 to 100 nM	10 to 100 nM	10 to 100 nM	≤ 10 nM
COc1cc2nccc(Oc3ccc(NC(=O)C4(C(=O)Nc5ccc(F)cc5)CC4)cc3)c2cc1-c1cnoc1 [Compound 183, 1-N′-(4-fluorophenyl)-1-N-[4-[7-methoxy-6-(1,2-oxazol-4-yl)quinolin-4-yl]oxyphenyl]cyclopropane-1,1-dicarboxamide]	10 to 100 nM	10 to 100 nM	10 to 100 nM	≤ 10 nM
COc1cc2nccc(Oc3ccc(NC(=O)C4(C(=O)Nc5ccc(F)cc5)CC4)cc3F)c2cc1C(=O)O [Compound 131, 4-[2-fluoro-4-[[1-[(4-fluorophenyl)carbamoyl]cyclopropanecarbonyl]amino]phenoxy]-7-methoxyquinoline-6-carboxylic acid]	> 300 nM	> 300 nM	10 to 100 nM	10 to 100 nM
COc1cc2nccc(Oc3ccc(NC(=O)C4(C(=O)Nc5ccc(F)cc5)CC4)cc3)c2cc1C#N [Compound 37, 1-N-[4-(6-cyano-7-methoxyquinolin-4-yl)oxyphenyl]-1-N′-(4-fluorophenyl)cyclopropane-1,1-dicarboxamide]	10 to 100 nM	10 to 100 nM	10 to 100 nM	≤ 10 nM
COc1cc2c(Oc3ccc(NC(=O)C4(C(=O)Nc5ccc(F)cc5)CC4)cc3)ccnc2cc1C(N)=O [Compound 152, 1-N-[4-(7-carbamoyl-6-methoxyquinolin-4-yl)oxyphenyl]-1-N′-(4-fluorophenyl)cyclopropane-1,1-dicarboxamide]	100 to 300 nM	100 to 300 nM	10 to 100 nM	≤ 10 nM
COc1cc2nccc(Oc3ccc(NC(=O)C4(C(=O)Nc5ccc(F)cc5)CC4)cc3)c2cc1C1(O)COC1 [Compound 196, 1-N′-(4-fluorophenyl)-1-N-[4-[6-(3-hydroxyoxetan-3-yl)-7-methoxyquinolin-4-yl]oxyphenyl]cyclopropane-1,1-dicarboxamide]	10 to 100 nM	10 to 100 nM	≤ 10 nM	≤ 10 nM
NC(=O)c1ccc2nccc(Oc3ccc(NC(=O)C4(C(=O)Nc5ccc(F)cc5)CC4)cc3)c2c1 [Compound 58, 1-N-[4-(6-carbamoylquinolin-4-yl)oxyphenyl]-1-N′-(4-fluorophenyl)cyclopropane-1,1-dicarboxamide]	100 to 300 nM	100 to 300 nM	10 to 100 nM	10 to 100 nM

Now from value to compound:

IC50 (KDR)	IC50 (Met)	IC50 [1]	IC50 [2]	SMILES
≤ 10 nM	10 to 100 nM	10 to 100 nM	≤ 10 nM	COC(=O)c1cc2c(Oc3ccc(NC(=O)C4(C(=O)Nc5ccc(F)cc5)CC4)cc3)ccnc2cc1OC [Compound 5, methyl 4-[4-[[1-[(4-fluorophenyl)carbamoyl]-cyclopropanecarbonyl]amino]-phenoxy]-7-methoxyquinoline-6-carboxylate]
10 to 100 nM	10 to 100 nM	10 to 100 nM	≤ 10 nM	COc1cc2nccc(Oc3ccc(NC(=O)C4(C(=O)Nc5ccc(F)cc5)CC4)cc3)c2cc1N1CC(F)(F)C1 [Compound 200, 1-N-[4-[6-(3,3-difluoroazetidin-1-yl)-7-methoxyquinolin-4-yl]oxyphenyl]-1-N′-(4-fluorophenyl)cyclopropane-1,1-dicarboxamide]
≤ 10 nM	≤ 10 nM	≤ 10 nM	≤ 10 nM	CNC(=O)c1cc2c(Oc3ccc(NC(=O)C4(C(=O)Nc5ccc(F)cc5)CC4)cc3F)ccnc2cc1OC [Compound 135, 1-N′-[3-fluoro-4-[7-methoxy-6-(methylcarbamoyl)quinolin-4-yl]oxyphenyl]-1-N-(4-fluorophenyl)cyclopropane-1,1-dicarboxamide]
≤ 10 nM	10 to 100 nM	≤ 10 nM	≤ 10 nM	COc1cc2nccc(Oc3ccc(NC(=O)C4(C(=O)Nc5ccc(F)cc5)CC4)cc3)c2cc1S(C)(=O)=O [Compound 210, 1-N′-(4-Fluorophenyl)-1-N-[4-(7-methoxy-6-methylsulfonylquinolin-4-yl)oxyphenyl]cyclopropane-1,1-dicarboxamide]
≤ 10 nM	10 to 100 nM	≤ 10 nM	≤ 10 nM	COC(=O)c1cc2c(Oc3ccc(NC(=O)C4(C(=O)Nc5ccc(F)cc5)CC4)cc3Cl)ccnc2cc1OC [Compound 128, methyl 4-[2-chloro-4-[[1-[(4-fluorophenyl)carbamoyl]cyclopropanecarbonyl]amino]phenoxy]-7-methoxyquinoline-6-carboxylate]
≤ 10 nM	10 to 100 nM	10 to 100 nM	≤ 10 nM	COCCOc1cc2nccc(Oc3ccc(NC(=O)C4(C(=O)Nc5ccc(F)cc5)CC4)cc3)c2cc1C(N)=O [Compound 103, 1-N-[4-[6-carbamoyl-7-(2-methoxyethoxy)quinolin-4-yl]oxyphenyl]-1-N′-(4-fluorophenyl)cyclopropane-1,1-dicarboxamide]
≤ 10 nM	≤ 10 nM	≤ 10 nM	≤ 10 nM	NC(=O)c1cc2c(Oc3ccc(NC(=O)C4(C(=O)Nc5ccc(F)cc5)CC4)cc3)ccnc2cc1OCCCN1CCOCC1 [Compound 98, 1-N-[4-[6-carbamoyl-7-(3-morpholin-4-ylpropoxy)quinolin-4-yl]oxyphenyl]-1-N′-(4-fluorophenyl)cyclopropane-1,1-dicarboxamide]
≤ 10 nM	10 to 100 nM	≤ 10 nM	≤ 10 nM	COC(=O)c1cc2c(Oc3ccc(NC(=O)C4(C(=O)Nc5ccc(F)cc5)CC4)cc3F)ccnc2cc1OC [Compound 129, methyl 4-[2-fluoro-4-[[1-[(4-fluorophenyl)carbamoyl]cyclopropanecarbonyl]amino]phenoxy]-7-methoxyquinoline-6-carboxylate]
≤ 10 nM	≤ 10 nM	≤ 10 nM	≤ 10 nM	COc1cc2nccc(Oc3ccc(NC(=O)C4(C(=O)Nc5ccc(F)cc5)CC4)cc3F)c2cc1C(N)=O [Compound 133, 1-N′-[4-(6-carbamoyl-7-methoxyquinolin-4-yl)oxy-3-fluorophenyl]-1-N-(4-fluorophenyl)cyclopropane-1,1-dicarboxamide]
